Data: patent US20120071501A1, “USE OF EXTRACTS OF THE GENUS CIMICIFUGA AS ORGANOSELECTIVE MEDICINES FOR TREATING DISEASES OF THE GENITOURINARY TRACT CAUSED BY SEX HORMONES” (Bionorica AG, priority 2001, published 2012)

Assays:
[1] = test system: urinary bladder of ovarectomized rats; assay: Differential bladder tonus (bladder elasticity) of ovarectomized rats; type: in vivo, rat
Method: Following a three-month treatment of ovarectomized rats with Cimicifuga racemosa extract, the maximum pressure in the urinary bladder [in mm Hg] and the minimum pressure [in mm Hg] following relaxation of the bladder were determined by instillation of 1 ml of physiological saline solution.

[2] = test system: estrogen receptor-alpha; assay: Expression of estrogen receptor-alpha in the urinary bladder; type: in vivo, rat; details: ovarectomized rats
Source text: In the bladder both the estrogen receptor ER-alpha and ER-beta are expressed.

[3] = test system: estrogen receptor-beta; assay: Gene expression of estrogen receptor-beta in the prostate of male castrated rat; type: in vivo
[4] = test system: estrogen receptor of the alpha-subtype; assay: Gene expression of estrogen receptor alpha-subtype in the prostate of male castrated rat; type: in vivo
[5] = test system: rat prostate; assay: In-vivo experiments in the rat prostate in the whole-body model; details: castrated rat
[6] = test system: IGF1; assay: IGF1 gene expression in the prostate of castrated male rats; type: in vivo, rat

O=C(c1ccc(OCN2CCCCC2)cc1)c1c(-c2ccc(O)cc2)sc2cc(O)ccc12 [Raloxifen]
differential pressure between maximum and minimum pressure (bladder elasticity) ([1]; highest Cimicifuga dose 400 mg/kg/d, compared with Raloxifen): comparable

C[C@]12CC[C@@H]3c4ccc(O)cc4CC[C@H]3[C@@H]1CC[C@@H]2O [estradiol, 17β-estradiol]
expression of the estrogen receptor-alpha in the urinary bladder [2]: regulate down
gene expression of the estrogen receptor-beta in the prostate [3]: without having an effect
gene expression of the estrogen receptor of the alpha-subtype in the prostate [4]: significantly inhibit
differential pressure between maximum and minimum pressure (bladder elasticity) ([1]; three-month treatment, instillation of 1 ml physiological saline, in comparison with placebo controls): most effective substance

C[C@]12CC[C@H]3[C@@H](CCC4=CC(=O)CC[C@@]43C)[C@@H]1CC[C@@H]2O [testosterone]
prostate regression induced by castration [5]: could be antagonized
gene expression of the growth factor IGF1 in the prostate [6]: regulated up
